Reference: US20160166572A1, “BENEFICIAL EFFECTS OF Lp-PLA2 INHIBITORS IN TREATMENT OF DIABETIC RETINOPATHY AND AGE-RELATED MACULAR DEGENERATION” (Rowan University, priority 2014, published 2016)

Columns and labels:
[1] = system: claudin5; assay: Claudin5 gene expression in cerebral cortex (RT-PCR, beta-actin reference), DMHC pigs; type: in vivo, pig; settings: Darapladib 10 mg/kg/d orally, 24 weeks, rank among treatment groups, FIG. 8A
Procedure: Briefly, after induction of diabetes by a single injection of Streptozotocin, animals were fed a high cholesterol diet. After a month of DMHC induction and acclimation, animals were randomly segregated to untreated DMHC and Darapladib-treated DMHC groups. Darapladib-treated pigs received 10 mg/kg/d of Darapladib orally. Three of the pigs were spared from DMHC induction and served as age-matched, non-DMHC normal controls. Twenty four weeks after acclimation, animals were euthanized and their brains and eyes were immediately removed. Brains were divided anteroposteriorly into anterior, middle and posterior regions. […]
Relative quantification of claudin5 and occludin gene expression was carried out using the reporter dye SYBR green and Applied Biosystems 7500 real time polymerase chain reaction (RT-PCR) system. […] Relative quantification of the claudin5 and occludin gene expression was conducted using beta actin (β-actin), a house keeping gene, as a standard. The amplification profiles of all samples were analyzed using Applied Biosystems software. […]
Changes in claudin 5 and occludin gene expression in response to DMHC and Darapladib treatment were assessed in the middle brain region only of the pig cerebral cortex by real-time polymerase chain reaction (RT-PCR) using beta-actin as a reference (FIG. 8).

[2] = system: porcine retina; assay: Determination of retinal layer thickness (H&E, ImagePro) in DMHC porcine model; type: in vivo, pig; settings: DMHC pigs, Darapladib 10 mg/kg/d orally, 24 weeks
Procedure: Briefly, after induction of diabetes by a single injection of Streptozotocin, animals were fed a high cholesterol diet. After a month of DMHC induction and acclimation, animals were randomly segregated to untreated DMHC and Darapladib-treated DMHC groups. Darapladib-treated pigs received 10 mg/kg/d of Darapladib orally. Three of the pigs were spared from DMHC induction and served as age-matched, non-DMHC normal controls. Twenty four weeks after acclimation, animals were euthanized and their brains and eyes were immediately removed. Brains were divided anteroposteriorly into anterior, middle and posterior regions. For each of these brain regions, 2-3 tissue blocks were generated for routine tissue fixation (10% formalin) or freezing and histological processing. The anterior cortical region comprised of anterior ⅔ of frontal lobe and anterior ⅓ of temporal lobe. The middle cortical region contained mid ⅓ of temporal lobe and anterior ½ of the parietal lobe. The posterior cortex included the posterior ½ of the parietal lobe, posterior ⅓ of the temporal lobe and the occipital lobe. Eyes were dissected longitudinally to sever the retina at the optic nerve. The sections were fixed in 10% formalin and embedded as flattened disc in paraffin. The tissue samples were processed using routine histology techniques. Standard Hematoxylin & Eosin (H&E) staining (FIG. 1) was carried out in retinal sections. The remarkably uniform and laminated histological architecture of the retina lends itself well to direct measurements of the thickness of the various layers as shown in FIG. 1. Using the image analysis software, ImagePro 7.0 (Media Cybernetics, Silver Spring, Md.), the thickness of all retinal layers were measured. The thickness of each retinal layer was measured in three separate retinal sections obtained from each animal. In each section, measurements were made at two randomly selected locations in the middle part of retina. Results were averaged for each pig. The identity of specimens was blinded and two independent investigators carried out this analysis. In addition, the percentage contribution of each retinal layer to the total thickness of the retina was calculated and compared among the different treatment groups (FIG. 2). The thickness of the individual layers of the retina was measured in transverse sections stained with Hematoxylin and Eosin using the image analysis software, ImagePro 7.0.

Q: For `CCN(CC)CCN(Cc1ccc(-c2ccc(C(F)(F)F)cc2)cc1)C(=O)Cn1c(SCc2ccc(F)cc2)nc(=O)c2c1CCC2` [Darapladib], which “claudin5 gene expression, middle brain region of cerebral cortex” value [1] is on record?
A: highest claudin5 and occludin levels

Q: And the “thickness of ganglion cell layer (GCL)” value ([2]; FIG. 2B)?
A: comparable to controls

Q: And the “thickness of outer nuclear layer (ONL)” value ([2]; FIG. 2C)?
A: comparable to controls

Q: What about the “thickness of inner-segment (IS)/outer-segment (OS) layer” value ([2]; FIG. 2D) of the same compound?
A: comparable to controls

Q: What about the “thickness of inner plexiform layer (IPL)” value ([2]; FIG. 2E) of the same compound?
A: lowered IPL thickness in DMHC animals to near control levels

Q: What about the “thickness of inner nuclear layer (INL)” value ([2]; FIG. 2F) of the same compound?
A: comparable thickness across all treatment groups
